Among the test systems are RXF 393; SF-295; HT-29; HOP-62; SN12C; A498; SNB-75; SF-268; CAKI-1; HOP-92; OVCAR-4; EKVX; NCI-H460; SK-MEL-2; U-251; NCI-H522; SK-OV-3.
What all share (test): NCI-60 cell line screen, 48 h

Here are results for 13 molecules from ChEMBL document CHEMBL1201862, “PubChem BioAssay data set” (2004).

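Dose response: 5 concentrations. Exposure: 48 h. Format: 96-well plates. Endpoint: linear interpolation; highest concentration if not reached. GI50 = concentration required for 50% inhibition of growth.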 The source made the active and inactive calls. Cut-off read from the data, not from the text of the source: active = GI50 up to about 1.1 µM and inactive = higher. A value given as a limit tells only on which side of the number the result lay.

As for `COc1ccc(C[C@]23CCC(=O)N2CCc2cc(OC)c(O)cc23)cc1O`, the GI50 with RXF 393, in the test with SF-295, in the test with HT-29, with HOP-62, with SN12C and with A498 was > 100 µM (inactive) each time. Moreover, the GI50 with SNB-75, in the test with SF-268, with CAKI-1, in the test on HOP-92, in the test on OVCAR-4 and in the test with EKVX was > 100 µM (inactive) in each case. Further, the GI50 with NCI-H460 is > 100 µM (inactive).

`CC(C)CC(NC(=O)c1cccc(O)c1O)C(=O)NCc1cc(CNC(=O)C(CC(C)C)NC(=O)c2cccc(O)c2O)cc(CNC(=O)C(CC(C)C)NC(=O)c2cccc(O)c2O)c1` (stereo not drawn): the GI50 is 15.5 µM (inactive) in the test on SF-295; 13.3 µM (inactive) in the test with HT-29; 15 µM (inactive) with HOP-62; 12.8 µM (inactive) in the test with SN12C; 24.8 µM (inactive) in the test on A498; 7.05 µM (inactive) with SK-MEL-2. Besides, the GI50 is 20.6 µM (inactive) in the test on SNB-75; 8.13 µM (inactive) with SF-268; 46.3 µM (inactive) in the test with CAKI-1; 14.6 µM (inactive) in the test with HOP-92; 13.9 µM (inactive) with OVCAR-4; 12.6 µM (inactive) in the test on EKVX. In addition, the GI50 with NCI-H460 is 14 µM (inactive); in the test on U-251 it was 11.1 µM (inactive); with NCI-H522 it was 3.92 µM (inactive); with SK-OV-3, 9.44 µM (inactive).

Consider `CC1=C(C(=O)Nc2cc(F)c(F)cc2F)C(c2cccc([N+](=O)[O-])c2)C(C(=O)Nc2ccccc2C(F)(F)F)=C(C)N1` (stereo not drawn), for which the GI50 in the test on RXF 393 was 13.9 µM (inactive); with SF-295, 23.4 µM (inactive); with HT-29 it was 26.7 µM (inactive); in the test with HOP-62, 22.4 µM (inactive); in the test on SN12C, 19.8 µM (inactive); in the test on A498 it was 11.2 µM (inactive). For the same molecule, the GI50 was 18 µM (inactive) with SK-MEL-2; 12.6 µM (inactive) in the test with SNB-75; 18.7 µM (inactive) with SF-268; 15.8 µM (inactive) with CAKI-1; 10.9 µM (inactive) in the test with HOP-92; 18.1 µM (inactive) with OVCAR-4. For the same molecule, the GI50 in the test with EKVX was 21.4 µM (inactive); in the test with NCI-H460, 18.5 µM (inactive); in the test with U-251, 16.9 µM (inactive); in the test on NCI-H522, 13.8 µM (inactive); in the test on SK-OV-3, 23.2 µM (inactive).

Turning to `COc1cc2c(cc1O)C=NCC2`, the GI50 is > 100 µM (inactive) in the test with SF-295; > 100 µM (inactive) with SN12C; 94.2 µM (inactive) in the test on A498; > 100 µM (inactive) with SK-MEL-2; > 100 µM (inactive) in the test with SNB-75; > 100 µM (inactive) with SF-268. The GI50 in the test with CAKI-1, in the test on HOP-92, in the test with OVCAR-4, in the test on EKVX, with NCI-H460 and with U-251 was > 100 µM (inactive) each time. The GI50 in the test on NCI-H522 and in the test with SK-OV-3 was > 100 µM (inactive) in each case.

Consider `CC(=O)C1Cn2c(=O)c3cc4ccccc4cc3c(=O)n2C=C1C` (stereo not drawn), for which the GI50 with RXF 393 is > 100 µM (inactive); in the test on SF-295, > 100 µM (inactive); in the test on HOP-62, > 100 µM (inactive); with SN12C, > 100 µM (inactive); in the test on A498, 43.5 µM (inactive); in the test on SK-MEL-2, > 100 µM (inactive). Further, the GI50 is 67.8 µM (inactive) in the test on SNB-75; > 100 µM (inactive) with SF-268; > 100 µM (inactive) with CAKI-1; 61.2 µM (inactive) in the test on HOP-92; > 100 µM (inactive) with OVCAR-4; > 100 µM (inactive) with EKVX. For the same molecule, the GI50 in the test on NCI-H460 was 97.9 µM (inactive); in the test on U-251, > 100 µM (inactive); in the test on NCI-H522, > 100 µM (inactive); in the test with SK-OV-3, > 100 µM (inactive).

Take `CCSC(SCC)=C1C(=O)N(c2ccccc2)N=C1C`: the GI50 was 1.95 µM (inactive) with RXF 393; 23.7 µM (inactive) in the test on SF-295; 19.1 µM (inactive) with HT-29; 23.3 µM (inactive) with HOP-62; 16.1 µM (inactive) in the test on SN12C; 15.3 µM (inactive) with A498. In addition, the GI50 was 15.8 µM (inactive) with SK-MEL-2; 20.6 µM (inactive) with SNB-75; 14.1 µM (inactive) with SF-268; 3.8 µM (inactive) in the test on CAKI-1; 6.38 µM (inactive) in the test with HOP-92; 13.7 µM (inactive) with EKVX. In addition, the figures for the GI50 in the test with NCI-H460, with NCI-H522 and in the test on SK-OV-3 were 16 µM (inactive), 1.95 µM (inactive) and 17.9 µM (inactive), respectively.

Consider `N#C/C(=C(/S)Nc1ccccc1)c1nc2ccccc2[nH]1`, for which the GI50 in the test on HOP-62, in the test with SN12C, in the test with A498, in the test with SK-MEL-2, with SNB-75 and in the test on SF-268 was > 10 µM (inactive) in each case. For the same molecule, the GI50 with CAKI-1, in the test on HOP-92, in the test with OVCAR-4, in the test with EKVX, with NCI-H460 and in the test with U-251 was > 10 µM (inactive) in each case. In addition, the GI50 with NCI-H522 is > 10 µM (inactive); in the test on SK-OV-3 it was 0.634 µM (active).

For the molecule `CC(=O)c1ccc2c(ccc(=O)n2C)c1`, the GI50 with SF-295, with HT-29, in the test with HOP-62, in the test on SN12C, in the test on A498 and in the test with SK-MEL-2 was > 100 µM (inactive) in each case. In addition, the GI50 with SNB-75 is 38.7 µM (inactive); in the test with SF-268, > 100 µM (inactive); in the test with CAKI-1 it was > 100 µM (inactive); in the test on HOP-92, > 100 µM (inactive); in the test on OVCAR-4 it was > 100 µM (inactive); in the test with EKVX, > 100 µM (inactive). Moreover, the GI50 was > 100 µM (inactive) in the test with NCI-H460, > 100 µM (inactive) with U-251, 56.2 µM (inactive) with NCI-H522 and > 100 µM (inactive) in the test with SK-OV-3.

On to `CCN(c1ccccc1)[C@H]1C(=O)N(c2ccc([N+](=O)[O-])cc2)[C@H]1c1ccc(OC)cc1`, for which the GI50 in the test with RXF 393 was 37.6 µM (inactive); in the test on SF-295 it was 52.5 µM (inactive); in the test on HT-29 it was > 100 µM (inactive); with SN12C it was 98.6 µM (inactive); in the test on A498 it was 80.7 µM (inactive); in the test on SK-MEL-2 it was > 100 µM (inactive). For the same molecule, the GI50 in the test on SNB-75 is 46.9 µM (inactive); in the test on SF-268, > 100 µM (inactive); with CAKI-1, 73.3 µM (inactive); in the test on HOP-92 it was 15.8 µM (inactive); with EKVX, > 100 µM (inactive); in the test with NCI-H460 it was > 100 µM (inactive). In addition, the GI50 is > 100 µM (inactive) in the test on U-251, 63.5 µM (inactive) in the test with NCI-H522 and 56.8 µM (inactive) with SK-OV-3.

For the molecule `CC(C)C(=O)/C=C/c1ccc(Cl)cc1`, the GI50 is 17.6 µM (inactive) in the test on RXF 393; 13.5 µM (inactive) with SF-295; 14.1 µM (inactive) in the test on HT-29; 7.73 µM (inactive) with SN12C; > 10 µM (inactive) in the test on A498; 19.4 µM (inactive) in the test with SK-MEL-2. In addition, the GI50 in the test with SNB-75 was 15.8 µM (inactive); with SF-268, 23.8 µM (inactive); in the test with HOP-92, 16.7 µM (inactive); in the test on OVCAR-4, 12.9 µM (inactive); in the test on NCI-H460, 15.7 µM (inactive); in the test on U-251, 12.9 µM (inactive). Besides, the figures for the GI50 in the test on NCI-H522 and in the test with SK-OV-3 were 11 µM (inactive) and 40.5 µM (inactive), respectively.

For `CCOP1(=O)C=CC(Cl)=C(C)C1` (stereo not drawn), the GI50 in the test on RXF 393 is 4.27 µM (inactive); in the test with SF-295 it was 35.2 µM (inactive); with HT-29, 13.2 µM (inactive); with HOP-62, 27.2 µM (inactive); in the test on SN12C it was 11.7 µM (inactive); in the test with A498 it was 29.2 µM (inactive). Also, the GI50 with SK-MEL-2 was 12.9 µM (inactive); in the test on SNB-75 it was 4.67 µM (inactive); with SF-268, 22.1 µM (inactive); in the test on CAKI-1 it was 10.5 µM (inactive); in the test with HOP-92 it was 16.9 µM (inactive); in the test on OVCAR-4 it was 16.4 µM (inactive). Moreover, the GI50 was 26.4 µM (inactive) in the test on EKVX; 27.4 µM (inactive) in the test on NCI-H460; 24.4 µM (inactive) in the test with U-251; 4.04 µM (inactive) in the test with NCI-H522; 48 µM (inactive) in the test on SK-OV-3.

On to `COc1ccc(C(CCC(C)=O)C(=O)O)cc1OC` (stereo not drawn), for which the GI50 with RXF 393, with SF-295, in the test with HT-29, in the test with HOP-62, in the test on SN12C and in the test on A498 was > 100 µM (inactive) each time. Besides, the GI50 with SK-MEL-2, with SNB-75, with SF-268, with CAKI-1, in the test with HOP-92 and with OVCAR-4 was > 100 µM (inactive) each time. The GI50 in the test on EKVX, with NCI-H460 and in the test on U-251 was > 100 µM (inactive) each time.

For the molecule `COc1cc(C2c3cc4c(cc3[C@@H](N(C)c3ccc(N(C)C)cc3)C3COC(=O)C23)OCO4)cc(OC)c1O` (stereo partly drawn), the GI50 in the test on SF-295 is 0.147 µM (active); in the test on HT-29 it was 0.269 µM (active); in the test on HOP-62, 1.75 µM (inactive); in the test on SN12C, 0.59 µM (active); with A498, 26.8 µM (inactive); in the test with SK-MEL-2, 0.33 µM (active). Also, the GI50 with SNB-75 was 4.34 µM (inactive); with SF-268, 0.343 µM (active); with CAKI-1 it was 0.491 µM (active); in the test on HOP-92 it was 1.99 µM (inactive); with OVCAR-4, 9.57 µM (inactive); with EKVX, 15.8 µM (inactive). Further, the GI50 with NCI-H460 was 0.352 µM (active); with U-251 it was 0.219 µM (active); in the test on NCI-H522, 0.0589 µM (active); with SK-OV-3, 0.402 µM (active).
